{
  "source": "patent US7108863B2",
  "about": "“Liposome composition for improved intracellular delivery of a therapeutic agent” (Alza Corporation, priority 2001, dated 2006)",
  "key": {"Namalwa cells": {"tested_on": "Namalwa cells", "test": "Nuclear accumulation of doxorubicin in Namalwa cells", "type": "cell-based, human", "conditions": "8 μM DXR, 0-12 hours", "method": "Nuclear accumulation of doxorubicin was determined as described in Example 7. Briefly, Namalwa cells, maintained under logarithmic growth conditions were treated with doxorubicin-entrapped liposome formulations at a doxorubicin concentration of 8 μM. At various time points (0, 2, 4, 8, 12 hours), an aliquot of the treated cells was ruptured to recover the nuclei. The DNA in the nuclei were enzymatically digested and doxorubicin fluorescence was measured.\nNuclear accumulation of doxorubicin was determined according to the method of Kirchmeier et al. (J. Liposome Res., 11:15 (2001)). Briefly, 4.5×10^8/500 ml Namalwa cells, maintained under logarithmic growth conditions in RPMI 1640 supplemented with 10% FBS, were treated with either free DXR or various liposomal DXR formulations at a DXR concentration of 8 μM.\nAt various time points (0, 2, 4, 8, 12 hours), 100 ml of cells was pelleted by centrifugation at 1000 rpm for 10 min and washed with 20 ml of TEA buffer. […] After removal of the supernatant, the pellet was diluted to 1 ml with TEA buffer, then vortexed and sonicated until the nuclei were evenly dispersed, as determined by visual inspection.\nFor each time point, three aliquots of the nuclear fractions (0.2 ml each) were placed in 1.3 ml TEA. […] Following digestion at 22° C. for 2 hours, the doxorubicin fluorescence was recorded (excitation at 480 nm and emission at 595 nm). […]"}, "[1]": {"tested_on": "CD 19± human B-lymphoma (Namalwa) cells", "test": "Survival of SCID mice implanted i.v. with Namalwa cells", "type": "in vivo", "method": "In another study performed in support of the invention, mice were treated with targeted, pH-sensitive liposomes having releasable PEG chains. Entrapped in the liposomes was the therapeutic agent doxorubicin (DXR). As described in Example 9, the mice were treated with a single dose of 3 mg DXR/kg in free form or entrapped in liposomes. The liposome formulations are summarized in Table 2 and detailed in Example 8.\nNamalwa cells were passaged i.p. in CB-17/ICR Tac SCID mice (Charles River Laboratories, Quebec, Canada) to develop a more virulent strain with reproducible tumor take (Lopes de Menezes et al., Cancer Res., 58:3320 (1998)). Namalwa cells were harvested in sterile PBS and implanted into SCID mice. Cell viability was assessed by dye exclusion using Trypan Blue dye before and after the implantation process.\nSCID mice (5 mice/group) (Charles River Laboratories), 6–8 weeks of age, were implanted with Namalwa cells i.v. (5×10^6) and treated i.v. at 24 h after implantation with a single dose of 3 mg doxorubicin/kg as either free doxorubicin, doxorubicin-SIL[anti-CD19] or targeted DXR-loaded DOPE/CHEMS formulations stabilized with either mPEG-DSPE or mPEG-S-S-DSPE. The treatment regimens were as follows:\nAll treatment groups received 3 mg doxorubicin/kg. Mice were monitored routinely for weight loss, and euthanized as they became moribund; survival times were recorded. […]"}, "CD19^+ Namalwa cells": {"tested_on": "CD19^+ Namalwa cells", "test": "In vitro cytotoxicity, MTT proliferation assay on Namalwa cells", "type": "cell-based", "conditions": "Homo sapiens, 48 hours, mean ± SD, read-out: IC50 (μM DXR)", "method": "In vitro cytotoxicity of free DXR and various liposomal formulations was evaluated using Namalwa cells with an in vitro proliferation assay as described in Example 6. In addition to the targeted, pH-sensitive liposomes, conventional, non-pH sensitive sterically stabilized liposome (DXR-SL) and doxorubicin in free form were also tested. Each of the test formulations was incubated with the Namalwa cells under controlled conditions for 48 hours. At the end of the incubation time, cytotoxicity was expressed as the inhibitory concentration, that is the concentration required for a 50% inhibition of cell growth (IC50).\nA comparison of the in vitro cytotoxicity of free doxorubicin and various liposomal formulations (Table 1) was performed on Namalwa cells with an in vitro proliferation assay using a tetrazolium dye (MTT -3-(4,5-dimethylthiazol-2-yl)-2,5 diphenyltetrazolim bromide; Mosmann, J. J. Immunol Methods, 65:55 (1983)), as described in Lopes de Menezes et al, Cancer Res., 58:3320 (1998).\nBriefly, 5×10^5 Namalwa cells were plated in 96-well plates and incubated with either free DXR or various formulations of liposome-encapsulated doxorubicin with or without anti-CD19 mAb. […] At the end of the incubation period, tetrazolium dye was added, and the plates were read on a Titertek Multiskan Plus (Flow Laboratories, Inc. Mississauga, Ontario, Canada) at dual wavelengths of 570 and 650 nm. […]"}},
  "data": [
    {"smiles": "COc1cccc2c1C(=O)c1c(O)c3c(c(O)c1C2=O)C[C@@](O)(C(=O)CO)C[C@@H]3O[C@H]1C[C@H](N)[C@H](O)[C@H](C)O1", "note": "[Free DXR, doxorubicin]", "values": [
      {"measurement": "nuclear accumulation of doxorubicin (in words)", "setting": "Namalwa cells", "value": "fastest rate"},
      {"measurement": "Increased Life Span (% ILS)", "setting": "[1]; relative to mean survival time of control mice, 3 mg DXR/kg i.v.", "value": 9.5, "unit": "%"},
      {"measurement": "Mean Survival Time (MST ± S.D. (days))", "setting": "[1]; single i.v. dose 3 mg DXR/kg 24 h after i.v. implantation, 5 mice/group", "value": "23.0 ± 1.4", "unit": "days"},
      {"measurement": "IC50", "setting": "CD19^+ Namalwa cells", "value": "0.8 ± 0.7", "unit": "µM"}
    ]}
  ]
}
